Results published in ChEMBL document CHEMBL3425466, “Light-switched inhibitors of protein tyrosine phosphatase PTP1B based on phosphonocarbonyl phenylalanine as photoactive phosphotyrosine mimetic” (Bioorg Med Chem, 2015).
Activity calls are given as the source filed them. The rule behind the calls is not given here. Numbered stars: 1 amine (or outer) side, 2 acyl side, 3 side chain; on linkers, the order of the positions; unused ones are H or OH. Square brackets hold non-standard residues; d marks the D form. Peptide text beside a SMILES is read from it. X1 = O=C(c1ccc(C[C@H](N[*:1])C(=O)[*:2])cc1)P(=O)(O)O

Legend:
[1] = Photodimerization of the compound exposed to UV irradiation in presence of DTT; format: physicochemical
[2] = Photodimerization of the compound exposed to UV irradiation in presence of TEMPO radical; format: physicochemical
[3] = molecular target: T1, Tyrosine-protein phosphatase non-receptor type 1 (Homo sapiens) (UniProt P18031); details: 10 uM
T1 sequence (whole entry): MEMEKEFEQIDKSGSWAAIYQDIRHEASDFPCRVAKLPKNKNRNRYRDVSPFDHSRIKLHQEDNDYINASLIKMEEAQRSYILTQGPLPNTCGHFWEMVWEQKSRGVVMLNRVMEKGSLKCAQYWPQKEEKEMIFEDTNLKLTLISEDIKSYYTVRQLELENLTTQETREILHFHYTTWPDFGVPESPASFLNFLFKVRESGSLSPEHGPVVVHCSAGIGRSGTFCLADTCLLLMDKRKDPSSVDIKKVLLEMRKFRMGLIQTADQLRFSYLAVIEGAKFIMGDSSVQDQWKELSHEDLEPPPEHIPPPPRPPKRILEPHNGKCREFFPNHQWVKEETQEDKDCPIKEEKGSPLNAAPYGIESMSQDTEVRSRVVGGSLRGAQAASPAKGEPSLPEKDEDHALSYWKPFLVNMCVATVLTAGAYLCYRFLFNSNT
Description: Inhibition of PTP1B catalytic domain (1 to 321 amino acids) (unknown origin) expressed in Escherichia coli Rosetta (DE3) at 10 uM incubated for 30 mins followed by UV irradiation with 365 nm for 45 mins in presence of 1 mM DTT by pNPP assay

[4] = molecular target: T1, Tyrosine-protein phosphatase non-receptor type 1 (Homo sapiens); details: 10 uM; remark: listed apart in the source
Description: Inhibition of PTP1B catalytic domain (1 to 321 amino acids) (unknown origin) expressed in Escherichia coli Rosetta (DE3) at 10 uM incubated for 30 mins followed by UV irradiation with 365 nm for 45 mins by pNPP assay

[5] = molecular target: T2, Tyrosine-protein phosphatase non-receptor type 1 (Homo sapiens, UniProt P18031); assay: Inhibition of PTP1B catalytic domain (1 to 321 amino acids) (unknown origin) expressed in Escherichia coli Rosetta (DE3) incubated for 30 mins followed by UV irradiation with 365 nm for 45 mins by pNPP assay
T2 sequence (P18031 whole entry): T1 sequence (whole entry)

[6] = molecular target: T2, Tyrosine-protein phosphatase non-receptor type 1; assay: Inhibition of PTP1B catalytic domain (1 to 321 amino acids) (unknown origin) expressed in Escherichia coli Rosetta (DE3) incubated for 30 mins in absence of UV irradiation with 365 nm for 45 mins by pNPP assay
[7] = molecular target: T2, Tyrosine-protein phosphatase non-receptor type 1; assay: Inhibition of PTP1B catalytic domain (1 to 321 amino acids) (unknown origin) expressed in Escherichia coli Rosetta (DE3) incubated for 30 mins in absence of UV irradiation with 365 nm for 45 mins and in presence of 1 mM DTT by pNPP assay
[8] = molecular target: T2, Tyrosine-protein phosphatase non-receptor type 1; assay: Inhibition of PTP1B catalytic domain (1 to 321 amino acids) (unknown origin) expressed in Escherichia coli Rosetta (DE3) incubated for 30 mins followed by UV irradiation with 365 nm for 45 mins in presence of 1 mM DTT by pNPP assay
[9] = molecular target: T1, Tyrosine-protein phosphatase non-receptor type 1 (Homo sapiens); details: 35 uM
Description: Inhibition of PTP1B catalytic domain (1 to 321 amino acids) (unknown origin) expressed in Escherichia coli Rosetta (DE3) at 35 uM incubated for 30 mins followed by UV irradiation with 365 nm for 45 mins in presence of 100 uM DTT by pNPP assay

SMILES | Activity [1] | Activity [2] | inhibition [3] | inhibition [4] | Ki [5] [nM] | Ki [6] [µM] | Ki [7] [µM] | Ki [8] [µM] | inhibition [9]
Cc1ccc(C(=O)P(=O)(O)O)cc1 | Not Active | Not Active | – | – | – | – | – | – | –
CC[C@H](C)[C@H](NC(=O)[C@H](Cc1ccc(C(=O)P(=O)(O)O)cc1)NC(=O)[C@H](CC(N)=O)NC(C)=O)C(=O)N[C@@H](CC(=O)O)C(=O)N[C@@H](CC(C)C)C(=O)N[C@@H](CC(=O)O)C(N)=O (Ac-N[X1]IDLD-NH2) | – | – | inactive | Active | 410 | 48.8 | – | – | –
CC(=O)N[C@@H](CC(=O)O)C(=O)N[C@@H](C)C(=O)N[C@@H](CC(=O)O)C(=O)N[C@@H](CCC(=O)O)C(=O)N[C@@H](Cc1ccc(C(=O)P(=O)(O)O)cc1)C(=O)N[C@@H](CC(C)C)C(N)=O (Ac-DADE[X1]L-NH2) | – | – | – | – | 390 | 30 | 17.3 | 12.9 | inactive
